According to patent US9249123B2, “Pyridinones/pyrazinones, method of making, and method of use thereof” (Genentech, Inc., priority 2010, dated 2016):

Test system: production of CD69 by B lymphocytes in human whole blood activated with goat F(ab')2 anti-human IgM
Experiment: CD69 Whole Blood Assay
Type: cell-based
Conditions: Lymphocyte, anti-IgM stimulation, 20 hours, CD69 positive of CD20 positive cells
Description: A CD69 Whole Blood Assay can be conducted on Formula I compounds to determine the ability of compounds to inhibit the production of CD69 by B lymphocytes in human whole blood activated by crosslinking surface IgM with goat F(ab′)2 anti-human IgM (Example 907).
Human blood is obtained from healthy volunteers, with the following restrictions: 1 week drug-free, non-smokers. Blood (approximately 20 mls to test 8 compounds) is collected by venipuncture into Vacutainer® (Becton, Dickinson and Co.) tubes with sodium heparin.
Solutions of Formula I compounds at 10 mM in DMSO are diluted 1:10 in 100% DMSO, then are diluted by three-fold serial dilutions in 100% DMSO for a ten point dose-response curve. The compounds are further diluted 1:10 in PBS and then an aliquot of 5.5 μl of each compound is added in duplicate to a 2 ml 96-well plate; 5.5 μl of 10% DMSO in PBS is added as control and no-stimulus wells. Human whole blood—HWB (100 μl) is added to each well. After mixing the plates are incubated at 37° C., 5% CO2, 100% humidity for 30 minutes. Goat F(ab′)2 anti-human IgM (10 μl of a 500 μg/ml solution, 50 μg/ml final) is added to each well (except the no-stimulus wells) with mixing and the plates are incubated for an additional 20 hours. At the end of the 20 hour incubation, samples are incubated with fluorescent labeled antibodies for 30 minutes, at 37° C., 5% CO2, 100% humidity. Include induced control, unstained and single stains for compensation adjustments and initial voltage settings. Samples are then lysed with PharM Lyse™ (BD Biosciences Pharmingen) according to the manufacturer's instructions. Samples are then transferred to a 96 well plate suitable to be run on the BD Biosciences HTS 96 well system on the LSRII machine. Data acquired and Mean Fluorescence Intensity values were obtained using BD Biosciences DIVA Software. Results are initially analyzed by FACS analysis software (Flow Jo). […] The IC50 values are calculated by Prism version 5, using a nonlinear regression curve fit.

In order of falling IC50:
1. Cn1cc(-c2cccc(N3Cc4cc(C(C)(C)C)ccc4C3=O)c2CO)cc(Nc2cc(C3CC3)n[nH]2)c1=O [Compound 110, 5-tert-butyl-2-(3-(5-(3-cyclopropyl-1H-pyrazol-5-ylamino)-1-methyl-6-oxo-1,6-dihydropyridin-3-yl)-2-(hydroxymethyl)phenyl) isoindolin-1-one]  1100 nM
2. Cn1cc(-c2cccc(N3Cc4cc(C(C)(C)C)ccc4C3=O)c2CO)cc(Nc2ccncn2)c1=O [Compound 107, 5-tert-butyl-2-(2-(hydroxymethyl)-3-(1-methyl-6-oxo-5-(pyrimidin-4-ylamino)-1,6-dihydropyridin-3-yl)phenyl)isoindolin-1-one]  605 nM
3. CN1CCN(c2ccc(Nc3cc(-c4cccc(N5Cc6cc(C(C)(C)C)ccc6C5=O)c4CO)cn(C)c3=O)nn2)CC1 [Compound 122, 5-tert-butyl-2-(2-(hydroxymethyl)-3-(1-methyl-5-(6-(4-methylpiperazin-1-yl)pyridazin-3-ylamino)-6-oxo-1,6-dihydropyridin-3-yl)phenyl)isoindolin-1-one]  185 nM
4. Cn1cc(-c2cccc(N3Cc4cc(C(C)(C)C)ccc4C3=O)c2CO)cc(Nc2ccn(CCO)n2)c1=O [Compound 119]  157 nM
5. Cn1cc(-c2cccc(N3Cc4cc(C(C)(C)C)sc4C3=O)c2CO)nc(Nc2ccc(N3CCOCC3)cc2)c1=O [Compound 160, 5-(3-{2-tert-butyl-6-oxo-4H,5H,6H-thieno[2,3-c]pyrrol-5-yl}-2-(hydroxymethyl)phenyl)-1-methyl-3-{[4-(morpholin-4-yl)phenyl]amino}-1,2-dihydropyrazin-2-one]  116 nM
6. Cn1cc(-c2cccc(N3Cc4cc(C(C)(C)C)sc4C3=O)c2CO)cc(Nc2ccc(N3CCOCC3)cn2)c1=O [Compound 151, 5-(3-{2-tert-butyl-6-oxo-4H,5H,6H-thieno[2,3-c]pyrrol-5-yl}-2-(hydroxymethyl)phenyl)-1-methyl-3-{[5-(morpholin-4-yl)pyridin-2-yl]amino}-1,2-dihydropyridin-2-one]  112 nM
7. Cn1cc(-c2cccc(N3Cc4cc(C(C)(C)C)sc4C3=O)c2CO)cc(Nc2ccn(CCO)n2)c1=O [Compound 139, 5-(3-{2-tert-butyl-6-oxo-4H,5H,6H-thieno[2,3-c]pyrrol-5-yl}-2-(hydroxymethyl)phenyl)-3-{[1-(2-hydroxyethyl)-1H-pyrazol-3-yl]amino}-1-methyl-1,2-dihydropyridin-2-one]  42.6 nM

Test system: CD86 surface expression on CD19+/7AAD- total mouse splenocytes stimulated with IgM
Experiment: CD86 Inhibition Assay
Type: cell-based
Conditions: Splenocyte; Balb/c mouse splenocytes, IgM stimulation, 24 hr
Experimental: A CD86 Inhibition assay can be conducted on Formula I compounds for the inhibition of B cell activity using total mouse splenocytes purified from spleens of 8-16 week old Balb/c mice (Example 905).
A generalized procedure for a standard assay for the inhibition of B cell activity that can be used to test Formula I compounds is as follows. Total mouse splenocytes are purified from spleens of 8-16 week old Balb/c mice by red blood cell lysis (BD Pharmingen #555899). Testing compounds are diluted to 0.5% DMSO and incubated with 1.25×10^6 splenocytes in a final volume of 200 μl in flat clear bottom plates (Falcon 353072) for 60 min at 37° C. Cells are then stimulated with the addition of 15 μg/ml IgM (Jackson ImmunoResearch 115-006-020), and incubated for 24 hr at 37° C., 5% CO2. Following the 24 hr incubation, cells are transferred to conical bottom clear 96-well plates and pelleted by centrifugation at 1200×g×5 min. Cells are preblocked by CD16/CD32 (BD Pharmingen #553142), followed by triple staining with CD19-FITC (BD Pharmingen #553785), CD86-PE (BD Pharmingen #553692), and 7AAD (BD Pharmingen #51-68981E). Cells are sorted on a BD FACSCalibur and gated on the CD19^+/7AAD^− population. The levels of CD86 surface expression on the gated population is measured versus test compound concentration. Exemplary results are in Table 3.

In order of falling EC50:
1. Cn1cc(-c2ccc(F)c(N3Cc4cc(C(C)(C)C)sc4C3=O)c2CO)cc(Nc2ccncn2)c1=O [Compound 141, 5-(3-{2-tert-butyl-6-oxo-4H,5H,6H-thieno[2,3-c]pyrrol-5-yl}-4-fluoro-2-(hydroxymethyl)phenyl)-1-methyl-3-(pyrimidin-4-ylamino)-1,2-dihydropyridin-2-one]  775 nM
2. Cc1c(-c2cn(C)c(=O)c(Nc3ccc(C4C(=O)N(C)CCN4C)cc3)n2)cccc1N1Cc2cc(C(C)(C)C)ccc2C1=O (centres unmarked) [Compound 127, 5-tert-butyl-2-[3-(6-{[4-(1,4-dimethyl-3-oxopiperazin-2-yl)phenyl]amino}-4-methyl-5-oxo-4,5-dihydropyrazin-2-yl)-2-methylphenyl]-2,3-dihydro-1H-isoindol-1-one]  498 nM
3. Cn1cc(-c2cccc(N3Cc4cc(C(C)(C)C)sc4C3=O)c2CO)nc(Nc2ccc(C3CCNCC3)cc2)c1=O [Compound 152, 5-(3-{2-tert-butyl-6-oxo-4H,5H,6H-thieno[2,3-c]pyrrol-5-yl}-2-(hydroxymethyl)phenyl)-1-methyl-3-{[4-(piperidin-4-yl)phenyl]amino}-1,2-dihydropyrazin-2-one]  306 nM
4. Cc1cc(Nc2cc(-c3cccc(N4Cc5cc(C(C)(C)C)sc5C4=O)c3CO)cn(C)c2=O)n[nH]1 [Compound 157, 5-(3-{2-tert-butyl-6-oxo-4H,5H,6H-thieno[2,3-c]pyrrol-5-yl}-2-(hydroxymethyl)phenyl)-1-methyl-3-[(5-methyl-1H-pyrazol-3-yl)amino]-1,2-dihydropyridin-2-one]  229 nM
5. Cn1cc(-c2cccc(N3Cc4cc(C(C)(C)C)ccc4C3=O)c2CO)cc(Nc2ccc(C3CNC3)cn2)c1=O [Compound 117, 2-(3-(5-(5-(azetidin-3-yl)pyridin-2-ylamino)-1-methyl-6-oxo-1,6-dihydropyridin-3-yl)-2-(hydroxymethyl)phenyl)-5-tert-butylisoindolin-1-one]  154 nM
6. Cn1cc(-c2cccc(N3Cc4cc(C(C)(C)C)sc4C3=O)c2CO)nc(Nc2ccc(N3CCOCC3)cc2)c1=O [Compound 160, 5-(3-{2-tert-butyl-6-oxo-4H,5H,6H-thieno[2,3-c]pyrrol-5-yl}-2-(hydroxymethyl)phenyl)-1-methyl-3-{[4-(morpholin-4-yl)phenyl]amino}-1,2-dihydropyrazin-2-one]  153 nM
7. Cn1cc(-c2cccc(N3Cc4cc(C(C)(C)C)sc4C3=O)c2CO)cc(Nc2cc3n(n2)CCOC3)c1=O [Compound 154, 5-(3-{2-tert-butyl-6-oxo-4H,5H,6H-thieno[2,3-c]pyrrol-5-yl}-2-(hydroxymethyl)phenyl)-1-methyl-3-{4H,6H,7H-pyrazolo[3,2-c][1,4]oxazin-2-ylamino}-1,2-dihydropyridin-2-one]  149 nM
8. Cn1cc(-c2cccc(N3Cc4cc(C(C)(C)C)ccc4C3=O)c2CO)nc(Nc2cnn(C3CC3)c2)c1=O [Compound 109, 5-tert-butyl-2-(3-(6-(1-cyclopropyl-1H-pyrazol-4-ylamino)-4-methyl-5-oxo-4,5-dihydropyrazin-2-yl)-2-(hydroxymethyl)phenyl) isoindolin-1-one]  113 nM
9. Cn1cc(-c2cccc(N3Cc4cc(C(C)(C)C)ccc4C3=O)c2CO)cc(Nc2ccncn2)c1=O [Compound 107, 5-tert-butyl-2-(2-(hydroxymethyl)-3-(1-methyl-6-oxo-5-(pyrimidin-4-ylamino)-1,6-dihydropyridin-3-yl)phenyl)isoindolin-1-one]  74 nM
10. CN1CCN(c2ccc(Nc3cc(-c4cccc(N5Cc6cc(C(C)(C)C)sc6C5=O)c4CO)cn(C)c3=O)nc2)CC1 [Compound 146, 5-(3-{2-tert-butyl-6-oxo-4H,5H,6H-thieno[2,3-c]pyrrol-5-yl}-2-(hydroxymethyl)phenyl)-1-methyl-3-{[5-(4-methylpiperazin-1-yl)pyridin-2-yl]amino}-1,2-dihydropyridin-2-one]  28.9 nM
